Measured values published in patent US20100022483A1, “Substituted Tetracycline Compounds” (Paratek Pharmaceuticals, Inc., priority 2008, published 2010).
In brackets after ≈: the same amount, converted by molar mass. Where two headings read alike, the source gives them in different places.

How the values were obtained:
in vitro = format: cell-based; details: Chinese hamster, Cytotox. CHO-K1
Procedure: (§1) COS-1 and CHO-K1 cell suspensions were prepared, seeded into 96-well tissue culture treated black-walled microtiter plates (density determined by cell line), and incubated overnight at 37° C., in 5% CO2 and approximately 95% humidity. The following day, serial dilutions of compound were prepared under sterile conditions and transferred to cell plates. Cell/Compound plates were incubated under the above conditions for 24 hours. Following the incubation period, media/compound was aspirated and 50 μl of resazurin (0.042 mg/ml in PBS w/Ca and Mg) is added. The plates were then incubated under the above conditions for 2 hours and then placed in the dark at room temperature for an additional 30 minutes. Fluorescence measurements were taken (excitation 535 nm, emission 590 nm). The IC50 (concentration of compound causing 50% growth inhibition) was then calculated. Table 3 includes IC50 data for several substituted tetracycline compounds.

3T3 fibroblast cells = experiment: In vitro phototoxicity assay (neutral red; UV light-treated vs dark control plates); format: cell-based
Procedure: 3T3 fibroblast cells were harvested and plated at a concentration of 1×10^5 cells/mL and the plates were incubated overnight at 37° C., in 5% CO2 and approximately 95% humidity. On the following day the medium was removed from the plates and replaced with Hanks' Balanced Salt Solution (HBSS). Compound dilutions were made in HBSS and added to the plates. For each compound tested, a duplicate plate was prepared that was not exposed to light as a control for compound toxicity. Plates were then incubated in a dark drawer (for controls), or under UV light (meter reading of 1.6-1.8 mW/cm^2) for 50 minutes. Cells were then washed with HBSS, fresh medium was added, and plates were incubated overnight as described above. The following day neutral red was added as an indicator of cell viability. The plates were then incubated for an additional 3 hours. Cells were then washed with HBSS and blotted on absorbent paper to remove excess liquid. A solution of 50% EtOH, 10% glacial acetic acid was added and after 20 minutes incubation the plate's absorbance at 535 nm was read using a Wallac Victor 5 spectrophotometer. The phototoxicity reflected the difference between the light-treated and control cultures. Table 3 includes phototoxicity (μM) data for several substituted tetracycline compounds.

[1] = Mammalian cytotoxicity assay (resazurin), COS-1 cells; format: cell-based; details: African green monkey, read-out: Cytotox. COS-1
Procedure: as §1

gram positive bacteria = experiment: In vitro anti-bacterial activity assay (broth dilution MIC), gram positive bacteria; format: cell-based, S. aureus; details: 18 h
Excerpt: (§2) Bacterial infections may be caused by a wide variety of gram positive and gram negative bacteria. Some of the compounds of the invention are useful as antibiotics against organisms which are resistant and/or sensitive to other tetracycline compounds. The antibiotic activity of the tetracycline compounds of the invention may by using the in vitro standard broth dilution method described in Waitz, J. A., CLSI, Document M7-A2, vol. 10, no. 8, pp. 13-20, 2nd edition, Villanova, Pa. (1990).
(§3) The following assay was used to determine the efficacy of the tetracycline compounds against gram positive and gram negative bacteria. 2 mg of each compound was dissolved in 100 μl of DMSO. […] The tetracycline compound solutions were diluted to 50 μL volumes, with a test compound concentration of 0.098 μg/ml. Optical density (OD) determinations were made from fresh log-phase broth cultures of the test strains. Dilutions were made to achieve a final cell density of […] CFU/ml. At OD=1, cell densities for different genera were approximately:
(§4) 50 μl of the cell suspensions were added to each well of microtiter plates. The final cell density was approximately 5×10^5 CFU/ml. These plates were incubated at 35° C. in an ambient air incubator for approximately 18 hours. The plates were read with a microplate reader and were visually inspected when necessary. The MIC was defined as the lowest concentration of the tetracycline compound that inhibits growth. Table 3 includes MIC data for several substituted tetracycline compounds.

gram negative bacteria = experiment: In vitro anti-bacterial activity assay (broth dilution MIC), gram negative bacteria; format: cell-based, E. coli
Excerpt: as §2, §3, §4

[2] = Staphylococcus aureus, S. aureus MRSA5, read-out: Median MIC's G+ S. aureus MRSA5
[3] = Staphylococcus aureus, S. aureus RN450, read-out: Median MIC's G+ S. aureus RN450
[4] = Streptococcus pneumoniae, S. pneumoniae 157E-Strep, read-out: Median MIC's G+ S. pneumoniae 157E-Strep
[5] = Escherichia coli, 18 h, E. coli D1 209, read-out: Median MIC's G− E. coli D1 209

Compound	IC50 at 24 h (in vitro)	Photo Toxicity UV Tox50 (3T3 fibroblast cells; UV light 50 minutes)	Photo Toxicity Dark Tox50 (3T3 fibroblast cells; dark control plate)	IC50 at 24 h [1]	MIC (gram positive bacteria; [2])	MIC (gram positive bacteria; [3])	MIC (gram positive bacteria; [4])	MIC (gram negative bacteria; [5])	MIC (gram negative bacteria; Escherichia coli, 18 h, E. coli MG 1655, read-out: Median MIC's G− E. coli MG 1655)	MIC (gram negative bacteria; Escherichia coli, ATCC25922, 18 h, E. coli ATCC 25922, read-out: Median MIC's G− E. coli ATCC 25922)	MIC (gram negative bacteria; Pseudomonas aeruginosa, 18 h, P. aeruginosa K201 PAO6609, read-out: Median MIC's G− P. aeruginosa K201 PAO6609)	MIC (gram negative bacteria; Escherichia coli, 18 h, read-out: Median MIC's G− E. coli D1 209, E. coli D1 209)
CN(C)CCNC(=O)c1ccc(O)c2c1C[C@H]1C[C@H]3[C@H](N(C)C)C(O)=C(C(N)=O)C(=O)[C@@]3(O)C(O)=C1C2=O [AH]	> 126 µM	>125.56 µM	>125.56 µM	> 126 µM	64 µg/mL (≈ 121 µM)	16 µg/mL (≈ 30.3 µM)	8 µg/mL (≈ 15.1 µM)	64 µg/mL (≈ 121 µM)	64 µg/mL (≈ 121 µM)	64 µg/mL (≈ 121 µM)	64 µg/mL (≈ 121 µM)	–
CN(C)[C@@H]1C(O)=C(C(N)=O)C(=O)[C@@]2(O)C(O)=C3C(=O)c4c(O)ccc(-c5ccccc5)c4C[C@H]3C[C@@H]12 [AQ]	6.91 µM	–	–	6.06 µM	0.25 µg/mL (≈ 0.51 µM)	0.06 µg/mL (≈ 0.122 µM)	0.06 µg/mL (≈ 0.122 µM)	8 µg/mL (≈ 16.3 µM)	–	–	–	–
COC(=O)c1ccc(-c2ccc(O)c3c2C[C@H]2C[C@H]4[C@H](N(C)C)C(O)=C(C(N)=O)C(=O)[C@@]4(O)C(O)=C2C3=O)cc1 [AR]	< 2.53 µM	–	–	4.8 µM	0.315 µg/mL (≈ 0.574 µM)	0.06 µg/mL (≈ 0.109 µM)	0.25 µg/mL (≈ 0.456 µM)	–	–	–	–	64 µg/mL (≈ 117 µM)
CC(=O)c1cccc(-c2ccc(O)c3c2C[C@H]2C[C@H]4[C@H](N(C)C)C(O)=C(C(N)=O)C(=O)[C@@]4(O)C(O)=C2C3=O)c1 [AS]	–	–	–	–	0.5 µg/mL (≈ 0.939 µM)	0.06 µg/mL (≈ 0.113 µM)	0.06 µg/mL (≈ 0.113 µM)	64 µg/mL (≈ 120 µM)	–	–	–	–
CC(C)OC(=O)c1cccc(-c2ccc(O)c3c2C[C@H]2C[C@H]4[C@H](N(C)C)C(O)=C(C(N)=O)C(=O)[C@@]4(O)C(O)=C2C3=O)c1 [AU]	6.12 µM	–	–	4.56 µM	1 µg/mL (≈ 1.73 µM)	0.25 µg/mL (≈ 0.434 µM)	0.5 µg/mL (≈ 0.867 µM)	64 µg/mL (≈ 111 µM)	–	–	–	–
CN(C)[C@@H]1C(O)=C(C(N)=O)C(=O)[C@@]2(O)C(O)=C3C(=O)c4c(O)ccc(-c5ccc(CN6CCOCC6)o5)c4C[C@H]3C[C@@H]12 [AX]	> 32.6 µM	–	–	27.1 µM	4 µg/mL (≈ 6.9 µM)	0.06 µg/mL (≈ 0.104 µM)	0.06 µg/mL (≈ 0.104 µM)	8 µg/mL (≈ 13.8 µM)	–	–	–	–
CN1CCN(Cc2ccc(-c3ccc(O)c4c3C[C@H]3C[C@H]5[C@@H](N(C)C)C(O)=C(C(N)=O)C(=O)[C@@]5(O)C(O)=C3C4=O)o2)CC1 [AY]	> 32 µM	–	–	> 32 µM	32 µg/mL (≈ 54 µM)	0.5 µg/mL (≈ 0.844 µM)	0.25 µg/mL (≈ 0.422 µM)	64 µg/mL (≈ 108 µM)	–	–	–	–
CN(C)c1cc(-c2ccc(CN3CCN(CCO)CC3)o2)c(O)c2c1C[C@H]1C[C@H]3[C@H](N(C)C)C(O)=C(C(N)=O)C(=O)[C@@]3(O)C(O)=C1C2=O [BA]	> 111 µM	–	–	> 111 µM	64 µg/mL (≈ 96.1 µM)	1 µg/mL (≈ 1.5 µM)	2 µg/mL (≈ 3 µM)	64 µg/mL (≈ 96.1 µM)	–	–	–	–
COCc1cccc(-c2ccc(O)c3c2C[C@H]2C[C@H]4[C@H](N(C)C)C(O)=C(C(N)=O)C(=O)[C@@]4(O)C(O)=C2C3=O)c1 [DB]	13.2 µM	–	–	10.4 µM	0.5 µg/mL (≈ 0.935 µM)	0.06 µg/mL (≈ 0.112 µM)	0.06 µg/mL (≈ 0.112 µM)	64 µg/mL (≈ 120 µM)	–	–	–	–
